The source of these data is patent US20250333405A1, “ANTAGONISTS OF GPR39 PROTEIN” (VASOCARDEA, INC., priority 2024, published 2025).

For this experiment, the target named is T1, human GPR39 receptor (Homo sapiens, UniProt O43194).
T1 construct: PC3 Cells, Expressing the Endogenous Human GPR39 Receptor; endogenous in cells; host or cells: PC3 (human prostate adenocarcinoma) cells
T1 sequence (O43194 1-453): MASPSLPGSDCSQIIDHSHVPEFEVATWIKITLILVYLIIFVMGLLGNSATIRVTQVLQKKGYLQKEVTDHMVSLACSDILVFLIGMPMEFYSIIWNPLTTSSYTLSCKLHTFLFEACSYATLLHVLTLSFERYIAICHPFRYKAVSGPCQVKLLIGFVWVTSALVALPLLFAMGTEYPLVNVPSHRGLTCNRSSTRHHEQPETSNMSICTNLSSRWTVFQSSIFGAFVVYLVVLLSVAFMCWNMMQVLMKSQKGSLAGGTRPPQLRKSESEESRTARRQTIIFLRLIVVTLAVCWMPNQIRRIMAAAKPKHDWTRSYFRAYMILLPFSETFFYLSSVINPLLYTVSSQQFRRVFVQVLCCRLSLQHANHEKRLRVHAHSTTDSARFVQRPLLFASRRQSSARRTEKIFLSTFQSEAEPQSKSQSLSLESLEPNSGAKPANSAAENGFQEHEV
In words: Intracellular calcium response (FLIPR, Calcium-6) in PC3 cells, antagonism of agonist C3 (TC-G 1008) at EC90. The format is cell-based. As to conditions: functional pKi (-Log10Ki) by modified Cheng-Prusoff from IC50; PC3 cells endogenously expressing human GPR39; 30 μM ZnCl2; agonist C3 (TC-G 1008) at EC90 1.5 μM; read-out: fpKi activity. How it is done:
Measurement of Intracellular Calcium Response in PC3 Cells, Expressing the Endogenous Human GPR39 Receptor
Human prostate adenocarcinoma (PC3) cells endogenously expressing human GPR39 receptor were seeded into black walls clear-base 384-well plates at a density of 7,500 cells per well in DMEM (Low Glucose) supplemented with 10% heat-inactivated foetal bovine serum and 1% of Pen/Strep and grown overnight at 37° C., 5% CO2. After washing with assay buffer (20 mM HEPES, 137 mM NaCl, 5.4 mM KCl, 10 mM glucose, 0.8 mM MgSO4, 1.3 mM CaCl2), 0.3 mM Na2HPO4, 0.4 mM KH2PO4 4.2 mM NaHCO3, pH 7.4), cells were incubated with Calcium-6 probe (Molecular Devices) at 37° C. for 2 h and then equilibrated at RT for 30 minutes on metal block. The fluorescence was measured in real time by Fluorometric Imaging Plate Reader (FLIPR TETRA, Molecular Devices) (excitation wavelength at 470-495 nm, emission wavelength at 515-575 nm). Compounds of invention were serially diluted in neat DMSO at 1000 fold concentrations and plated into 384-well plates and then 200-fold diluted in assay buffer containing 150 μM ZnCl2 (30 μM final concentration) and 1.1% DMSO (0.32% final concentration). A dual addition FLIPR protocol was used which included a first addition of compounds 200-fold diluted in Assay Buffer containing 150 μM ZnCl2 and 1.1% DMSO and then after 10 minutes a second addition of a submaximal concentration of the hGPR39 receptor agonist, C3 (Tocris, TC-G 1008) at EC90 (concentration producing 90% of the maximal response) value of 1.5 μM. Fluorescence was monitored throughout the run assay. The peak of Ca2+ stimulation (baseline subtracted) was expressed as percentage of the maximal inhibition of the EC90 C3 response and was plotted versus the concentration of test compound. Curve fitting and IC50 estimations are carried out using a four-parameter logistic model using XLfit Software. […] An fpKi less than 5.2 is reported as “+/−”. An fpKi ranging from 5.2 to 5.9 is reported as “+”. An fpKi from 6.0 to 6.5 is reported as “++”. An fpKi from 6.6 to 7.2 is reported as “+++”. An fpKi equal to or greater than 7.3 is reported as “++++”.
(In general: Calcium flux is commonly read through the fluorescence of an indicator in the cells.)
As for `Cc1ccc(-c2cc(NC(=O)C3CC3)ccc2C(=O)N2CCS(=O)(=O)CC2)s1` [Example 25, N-[4-(1,1-dioxo-1,4-thiazinane-4-carbonyl)-3-(5-methylthiophen-2-yl)phenyl]cyclopropanecarboxamide], the Ki lay in the range of 316 to 1000 nM. As for `O=C(Nc1ccc(C(=O)N2CCC(F)(F)CC2)c(-n2ccc(C(F)(F)F)n2)c1)C1CC1` [Example 119, N-[4-(4,4-difluoropiperidine-1-carbonyl)-3-[3-(trifluoromethyl)pyrazol-1-yl]phenyl]cyclopropanecarboxamide], the figure is no more than 50.1 nM; as for `Cc1nnc(-c2ccc(C(=O)N3CCC(OC(F)(F)F)CC3)c(-c3ccn(C(C)C)n3)c2)[nH]1` [Example 56, 1-[4-(5-methyl-4H-1,2,4-triazol-3-yl)-2-[1-(propan-2-yl)-1H-pyrazol-3-yl]benzoyl]-4-(trifluoromethoxy) piperidine], no more than 50.1 nM; as for `CN1CCN(C(=O)c2ccc(NC(=O)C3CC3)cc2C2=CCCC2)C(c2ccccc2)C1` (stereo not drawn) [Example 89, N-[3-(cyclopenten-1-yl)-4-(4-methyl-2-phenylpiperazine-1-carbonyl)phenyl]cyclopropanecarboxamide], 63.1 to 251 nM.

Consider `Cc1nnc(-c2ccc(C(=O)N3CCN(C)CC3c3ccccc3)c(N3CCC(C(C)C)C3)c2)[nH]1` (single isomer, unassigned) [Example 125a, (4-methyl-2-phenylpiperazin-1-yl)-[4-(5-methyl-4H-1,2,4-triazol-3-yl)-2-(3-propan-2-ylpyrrolidin-1-yl)phenyl]methanone], for which the Ki lay in the range of 316 to 1000 nM.

For the molecule `O=C(Nc1ccc(C(=O)N2CCS(=O)(=O)CC2)c(-n2ccc(C(F)F)n2)c1)C1CC1` [Example 116, N-[3-[3-(difluoromethyl)pyrazol-1-yl]-4-(1,1-dioxo-1,4-thiazinane-4-carbonyl)phenyl]cyclopropanecarboxamide], the Ki lay within 63.1 to 251 nM.

Take `O=C(Nc1ccc(C(=O)N2CCC3(CC2)COC3)c(-c2cccc(C(F)(F)F)n2)c1)C1CC1` [Example 38, N-[4-(2-oxa-7-azaspiro[3.5]nonane-7-carbonyl)-3-[6-(trifluoromethyl)pyridin-2-yl]phenyl]cyclopropanecarboxamide]: the Ki was no more than 50.1 nM. As for `Cc1nnc(-c2ccc(C(=O)N3CCC(F)(F)CC3)c(-c3ccn(C(C)C4CC4)n3)c2)[nH]1` (single isomer, unassigned) [Example 57a, [2-[1-(1R or 1S-cyclopropylethyl)pyrazol-3-yl]-4-(5-methyl-4H-1,2,4-triazol-3-yl)phenyl]-(4,4-difluoro-1-piperidyl)methanone], the figure is no more than 50.1 nM; as for `CC(=O)Nc1ccc(-c2nccc(N3CCCC3)n2)c(N2CCCC2)c1` [Example 101, N-[3-pyrrolidin-1-yl-4-(4-pyrrolidin-1-ylpyrimidin-2-yl)phenyl]acetamide], greater than 6310 nM. Then `O=C(Nc1cc(N2CCCC2)c(C(=O)N2CCS(=O)(=O)CC2)cc1Cl)C1CC1` [Example 96, N-[2-chloro-4-(1,1-dioxo-1,4-thiazinane-4-carbonyl)-5-pyrrolidin-1-ylphenyl]cyclopropanecarboxamide], with 1260 to 6310 nM; and `CN1CCN(C(=O)c2ccc(-c3cn[nH]c3)cc2N2CCCC2)C(c2ccccc2)C1` (stereo not drawn) [Example 21, (4-methyl-2-phenylpiperazin-1-yl)-[4-(1H-pyrazol-4-yl)-2-pyrrolidin-1-ylphenyl]methanone], with greater than 6310 nM. Then `Cc1nnc(-c2ccc(C(=O)N3CCC(C(F)(F)F)CC3)c(-c3ccn(C(C)C)n3)c2)[nH]1` [Example 48, [4-(5-methyl-4H-1,2,4-triazol-3-yl)-2-(1-propan-2-ylpyrazol-3-yl)phenyl]-[4-(trifluoromethyl)piperidin-1-yl]methanone], with no more than 50.1 nM.

In the case of `Cc1nnc(-c2ccc(C(=O)N3CCC(F)(F)CC3)c(-c3ccn(C)n3)c2)[nH]1` [Example 46, (4,4-difluoropiperidin-1-yl)-[2-(1-methylpyrazol-3-yl)-4-(5-methyl-4H-1,2,4-triazol-3-yl)phenyl]methanone], the Ki fell in the range of 63.1 to 251 nM. Take `CN1CCN(C(=O)c2ccc(NC(=O)C3CC3)c(Cl)c2N2CCCC2)C(c2ccccc2)C1` (stereo not drawn) [Example 97, N-[2-chloro-4-(4-methyl-2-phenylpiperazine-1-carbonyl)-3-pyrrolidin-1-ylphenyl]cyclopropanecarboxide]: the Ki fell in the range of 316 to 1000 nM.

On to `CC(C)n1ccc(-c2cc(-c3cc(C(F)(F)F)n[nH]3)ccc2C(=O)N2CCC(F)(F)CC2)n1` [Example 84, (4,4-difluoro-1-piperidyl)-[2-(1-isopropylpyrazol-3-yl)-4-[5-(trifluoromethyl)-1H-pyrazol-3-yl]phenyl]methanone], for which the Ki was 316 to 1000 nM.

In the case of `CC(C)n1ccc(-c2cc(NC(=O)C3CC3)ccc2C(=O)N2CCC(F)(F)CC2)n1` [Example 23, N-[4-(4,4-difluoropiperidine-1-carbonyl)-3-(1-propan-2-ylpyrazol-3-yl)phenyl]cyclopropanecarboxamide], the Ki was no more than 50.1 nM.

Regarding `CN1CCN(C(=O)c2ccc(Nc3nc4ccccn4n3)cc2N2CCCC2)C(c2ccccc2)C1` (stereo not drawn) [Example 19, (4-methyl-2-phenylpiperazin-1-yl)-[2-pyrrolidin-1-yl-4-([1,2,4]triazolo[1,5-a]pyridin-2-ylamino)phenyl]methanone], the Ki was greater than 6310 nM. Then `Cc1cc(C(=O)N2CCS(=O)(=O)CC2)c(N2CCCC2)cc1NC(=O)C1CC1` [Example 93, N-[4-(1,1-dioxo-1,4-thiazinane-4-carbonyl)-2-methyl-5-pyrrolidin-1-ylphenyl]cyclopropanecarboxamide], with greater than 6310 nM. With `Cc1nnc(-c2ccc(C(=O)N3CCC(F)(F)CC3)c(-c3ccn(C4COC4)n3)c2)[nH]1` [Example 60, (4,4-difluoro-1-piperidyl)-[4-(5-methyl-4H-1,2,4-triazol-3-yl)-2-[1-(oxetan-3-yl)pyrazol-3-yl]phenyl]methanone], the Ki is no more than 50.1 nM. As for `COC1(C)CCN(C(=O)c2ccc(-c3nnc(C)[nH]3)cc2-c2ccn(C(C)C)n2)CC1` [Example 39, [2-(1-isopropylpyrazol-3-yl)-4-(5-methyl-4H-1,2,4-triazol-3-yl)phenyl]-(4-methoxy-4-methyl-1-piperidyl)methanone], the figure is no more than 50.1 nM. As for `Cc1nnc(-c2ccc(C(=O)N3CCC(C#N)CC3)c(-c3ccn(C(C)C)n3)c2)[nH]1` [Example 120, 1-[2-(1-isopropylpyrazol-3-yl)-4-(5-methyl-4H-1,2,4-triazol-3-yl)benzoyl]piperidine-4-carbonitrile], the figure is 316 to 1000 nM. In the case of `N#Cc1ccn(-c2cc(NC(=O)C3CC3)ccc2C(=O)N2CCS(=O)(=O)CC2)n1` [Example 117, N-[3-(3-cyanopyrazol-1-yl)-4-(1,1-dioxo-1,4-thiazinane-4-carbonyl)phenyl]cyclopropanecarboxamide], the Ki was in the range of 1260 to 6310 nM. As for `Cc1nnc(-c2ccc(C(=O)N3CCC(C(F)(F)F)CC3)c(-n3ccc(C4CC4)n3)c2)[nH]1` [Example 121, [2-(3-cyclopropylpyrazol-1-yl)-4-(5-methyl-4H-1,2,4-triazol-3-yl)phenyl]-[4-(trifluoromethyl)piperidin-1-yl]methanone], the Ki was no more than 50.1 nM. As for `CN1CCN(C(=O)c2ccc(NC(=O)C3CC3)cc2N2CCCC2=O)C(c2ccccc2)C1` (stereo not drawn) [Example 124, N-[4-(4-methyl-2-phenylpiperazine-1-carbonyl)-3-(2-oxopyrrolidin-1-yl)phenyl]cyclopropanecarboxamide], the figure is greater than 6310 nM.
